Measured values reported in PubChem BioAssay AID256 (DTP/NCI, 2004).
“And” between values parts separate entries of the source, which are not always exact repeats. Identical values can stand only once. Inconclusive results and toxic doses are left out. The calls were made as follows: active = survival T/C of 150% or more; inactive = T/C below 125% in these data.

Test system: CD2F1 mice, L1210 leukemia ip, survival T/C
Test: NCI In Vivo Anticancer Drug Screen. Data for tumor model L1210 Leukemia (intraperitoneal) in CD2F1 (CDF1) mice
Conditions: endpoint: mean survival time, higher = longer survival
In short: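 Read-out first: treated-group measurement over vehicle-control measurement, expressed as a ratio. Animals bore a transplanted tumor line and were dosed with compound or vehicle.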

[1] = dose: 12.5 mg/kg/injection, schedule: Q01DX009 (ip), vehicle: saline with Tween-80
[2] = dose: 25.0 mg/kg/injection, schedule: Q01DX009 (ip), vehicle: saline with Tween-80
[3] = dose: 50.0 mg/kg/injection, schedule: Q01DX009 (ip), vehicle: saline with Tween-80
[4] = dose: 100.0 mg/kg/injection, schedule: Q01DX009 (ip), vehicle: saline with Tween-80
[5] = dose: 200.0 mg/kg/injection, schedule: Q01DX009 (ip), vehicle: saline with Tween-80
[6] = dose: 100.0 mg/kg/injection, schedule: Q04DX003 (ip), vehicle: saline with Tween-80
[7] = dose: 200.0 mg/kg/injection, schedule: Q04DX003 (ip), vehicle: saline with Tween-80
[8] = dose: 400.0 mg/kg/injection, schedule: Q01DX009 (ip), vehicle: saline with Tween-80
[9] = dose: 400.0 mg/kg/injection, schedule: Q04DX003 (ip), vehicle: saline with Tween-80
[10] = dose: 100.0 mg/kg/injection, schedule: Q04DX003 (ip), vehicle: saline
[11] = dose: 100.0 mg/kg/injection, schedule: Q04DX002 (ip), vehicle: saline with Tween-80
[12] = dose: 200.0 mg/kg/injection, schedule: Q04DX002 (ip), vehicle: saline with Tween-80

Measured: T/C

O=C1NCC(Br)C(=O)N1 (stereo not given)
inactive: dose: 6.25 mg/kg/injection, schedule: Q01DX009 (ip), vehicle: saline + Tween-80 + alcohol 102 % of control | dose: 12.5 mg/kg/injection, schedule: Q01DX009 (ip), vehicle: saline + Tween-80 + alcohol 100 % of control and 109 % of control | [1] 93 % of control | dose: 25.0 mg/kg/injection, schedule: Q01DX009 (ip), vehicle: saline + Tween-80 + alcohol 93 % of control and 100 % of control | [2] 96 % of control | dose: 50.0 mg/kg/injection, schedule: Q01DX009 (ip), vehicle: saline + Tween-80 + alcohol 102 % of control | [3] 94 % of control | dose: 100.0 mg/kg/injection, schedule: Q01DX009 (ip), vehicle: saline + Tween-80 + alcohol 101 % of control and 105 % of control | [4] 102 % of control | dose: 200.0 mg/kg/injection, schedule: Q01DX009 (ip), vehicle: saline + Tween-80 + alcohol 113 % of control and 100 % of control | [5] 90 % of control | dose: 400.0 mg/kg/injection, schedule: Q01DX009 (ip), vehicle: saline + Tween-80 + alcohol 86 % of control

O=S(=O)(Cl)c1ccc(-c2ccc(S(=O)(=O)Cl)cc2)cc1
inactive: dose: 100.0 mg/kg/injection, schedule: Q04DX003 (ip), vehicle: Klucel (hydroxypropylcellulose) (HPC) 95 % of control | dose: 200.0 mg/kg/injection, schedule: Q04DX003 (ip), vehicle: Klucel (hydroxypropylcellulose) (HPC) 106 % of control | dose: 400.0 mg/kg/injection, schedule: Q04DX003 (ip), vehicle: Klucel (hydroxypropylcellulose) (HPC) 103 % of control

Nc1nc2c(ncn2-c2ccc(OCCCNC(=O)c3cccc(S(=O)(=O)F)c3)cc2)c(=O)[nH]1
inactive: dose: 75.0 mg/kg/injection, schedule: Q01DX001 (ip), vehicle: saline with Tween-80 92 % of control | dose: 150.0 mg/kg/injection, schedule: Q01DX001 (ip), vehicle: saline with Tween-80 103 % of control | dose: 300.0 mg/kg/injection, schedule: Q01DX001 (ip), vehicle: saline with Tween-80 101 % of control

Nc1cccc(N2N=C(C(=O)O)CC2=O)c1
inactive: [4] 90 % of control | [6] 103 % of control | [5] 91 % of control | [7] 103 % of control | [8] 91 % of control | [9] 101 % of control

OC(CF)CCl (stereo not given)
inactive: [3] 96 % of control | [10] 100 % of control | dose: 200.0 mg/kg/injection, schedule: Q04DX003 (ip), vehicle: saline 121 % of control

CN1C(=O)C=CC1=O (tested in a mixture with another compound)
inactive: dose: 25.0 mg/kg/injection, schedule: Q04DX002 (ip), vehicle: saline with Tween-80 103 % of control | dose: 50.0 mg/kg/injection, schedule: Q04DX002 (ip), vehicle: saline with Tween-80 91 % of control | [11] 95 % of control | [12] 91 % of control

CC(Br)C(=O)c1ccc2ncccc2c1 (stereo not given)
inactive: dose: 12.5 mg/kg/injection, schedule: Q04DX002 (ip), vehicle: saline + alcohol 98 % of control | dose: 25.0 mg/kg/injection, schedule: Q04DX002 (ip), vehicle: saline + alcohol 101 % of control | dose: 50.0 mg/kg/injection, schedule: Q04DX002 (ip), vehicle: saline + alcohol 95 % of control

CC(C)(O)C(Cl)S(=O)c1ccccc1 (stereo not given)
inactive: dose: 37.5 mg/kg/injection, schedule: Q04DX003 (ip), vehicle: saline with Tween-80 100 % of control | dose: 75.0 mg/kg/injection, schedule: Q04DX003 (ip), vehicle: saline with Tween-80 100 % of control | dose: 85.0 mg/kg/injection, schedule: Q04DX002 (ip), vehicle: saline with Tween-80 88 % of control | dose: 150.0 mg/kg/injection, schedule: Q04DX003 (ip), vehicle: saline with Tween-80 103 % of control | dose: 190.0 mg/kg/injection, schedule: Q04DX002 (ip), vehicle: saline with Tween-80 90 % of control | dose: 300.0 mg/kg/injection, schedule: Q04DX003 (ip), vehicle: saline with Tween-80 102 % of control

CC(=O)Nc1cccc(N(CCOS(C)(=O)=O)CCOS(C)(=O)=O)c1
inactive: dose: 0.5 mg/kg/injection, schedule: Q01DX009 (ip), vehicle: saline 122 % of control

CC1(C)COC(=O)N1
inactive: dose: 75.0 mg/kg/injection, schedule: Q01DX009 (ip), vehicle: saline with Tween-80 104 % of control | [10] 108 % of control | dose: 150.0 mg/kg/injection, schedule: Q01DX009 (ip), vehicle: saline with Tween-80 101 % of control

O=C(C=C(C(F)(F)F)C(F)(F)F)c1cccc(S(=O)(=O)F)c1
inactive: dose: 100.0 mg/kg/injection, schedule: Q01DX001 (ip), vehicle: saline with Tween-80 107 % of control

Cc1ccc(S(=O)(=O)OC2C(COCC(=O)O)OC3OC(C)(C)OC32)cc1 (stereo not given)
inactive: [4] 95 % of control | [6] 98 % of control | [5] 93 % of control | [7] 101 % of control | [8] 90 % of control | [9] 93 % of control

O=C(COc1cccc(Cl)c1)NCc1ccc(Cl)cc1
inactive: [6] 99 % of control | [7] 101 % of control | [9] 91 % of control

C=C(C)[C@]12CC(C)C34OC(/C=C\C=C\CCCCCCCCC)(O[C@@H]1[C@@H]3[C@@H]1O[C@]1(CO)[C@@H](O)[C@]1(O)C(=O)C(C)=C[C@@H]41)O2 (stereo not given in full)
inactive: dose: 0.01 mg/kg/injection, schedule: Q01DX009 (ip), vehicle: distilled water + alcohol 102 % of control | dose: 0.02 mg/kg/injection, schedule: Q01DX009 (ip), vehicle: distilled water + alcohol 94 % of control | dose: 0.04 mg/kg/injection, schedule: Q01DX009 (ip), vehicle: distilled water + alcohol 100 % of control | dose: 0.09 mg/kg/injection, schedule: Q01DX009 (ip), vehicle: alcohol 95 % of control | dose: 0.09 mg/kg/injection, schedule: Q01DX009 (ip), vehicle: distilled water + alcohol 96 % of control | dose: 0.19 mg/kg/injection, schedule: Q01DX009 (ip), vehicle: alcohol 100 % of control | dose: 0.38 mg/kg/injection, schedule: Q01DX009 (ip), vehicle: alcohol 101 % of control | dose: 0.75 mg/kg/injection, schedule: Q01DX009 (ip), vehicle: alcohol 112 % of control | dose: 1.5 mg/kg/injection, schedule: Q01DX009 (ip), vehicle: alcohol 117 % of control

O=C(O)c1ccc([N+](=O)[O-])cc1Br
inactive: [11] 96 % of control | [12] 107 % of control | dose: 400.0 mg/kg/injection, schedule: Q04DX002 (ip), vehicle: saline with Tween-80 100 % of control

C[N+](C)(C)CCO
inactive: dose: 100.0 mg/kg/injection, schedule: Q01DX009 (ip), vehicle: saline 96 % of control | dose: 200.0 mg/kg/injection, schedule: Q01DX009 (ip), vehicle: saline 102 % of control | dose: 400.0 mg/kg/injection, schedule: Q01DX009 (ip), vehicle: saline 90 % of control

CN1CCC(=C(C#N)c2ccccc2)CC1
inactive: dose: 12.5 mg/kg/injection, schedule: Q01DX009 (ip), vehicle: saline 100 % of control | dose: 25.0 mg/kg/injection, schedule: Q01DX009 (ip), vehicle: saline 102 % of control

COc1ccccc1NC(=O)Nc1ccc(C(=O)OCC(C)C)cc1
inactive: [4] 89 % of control | [6] 92 % of control | [5] 88 % of control | [7] 88 % of control | [9] 86 % of control

C=COC(=O)N1CCCCC1
inactive: dose: 75.0 mg/kg/injection, schedule: Q01DX001 (ip), vehicle: saline 97 % of control | dose: 150.0 mg/kg/injection, schedule: Q01DX001 (ip), vehicle: saline 98 % of control | dose: 300.0 mg/kg/injection, schedule: Q01DX001 (ip), vehicle: saline 106 % of control

COc1cc(-c2ccc3cc(OC)c(OC)c(OC)c3c2)cc(OC)c1OC
inactive: [4] 96 % of control | [5] 98 % of control | [8] 96 % of control

COc1cc(OC)c(NC(=O)Nc2c(C)n(C)n(-c3ccccc3)c2=O)cc1Cl
inactive: [1] 91 % of control | [2] 97 % of control | [3] 93 % of control and 97 % of control | [5] 89 % of control

COC(=O)C1CC23C=CCN4CC(C2C)C2(c5ccccc5NC12)C43 (stereo not given)
inactive: dose: 8.0 mg/kg/injection, schedule: Q01DX001 (ip), vehicle: saline 102 % of control | dose: 16.0 mg/kg/injection, schedule: Q01DX001 (ip), vehicle: saline 96 % of control | dose: 32.0 mg/kg/injection, schedule: Q01DX001 (ip), vehicle: saline 102 % of control | dose: 64.0 mg/kg/injection, schedule: Q01DX001 (ip), vehicle: saline 101 % of control
